Experimental data taken from patent US20220064196A1, “EGFR Inhibitors, Compositions and Methods Thereof” (Betta Pharmaceuticals Co., Ltd., priority 2019, published 2022).
Where two headings read alike, the source gives them in different places.

Experiments:
[1] = target: EGFR L858R/T790M/C797S (Homo sapiens, UniProt P00533, C797S/L858R/T790M); assay: Kinase assay (mobility shift), EGFR L858R/T790M/C797S; format: biochemical; conditions: numeric values
Protocol: [Worded in the source for another variant; this variant is reported under the same test.] (§1) Test 1 Kinase Assay for EGFR Del19/T790M/C797S and EGFR Wildtype
(§2) Enzyme reaction protocol are as follows:
(§3) 1. Preparing 1* Kinase buffer as followed.
(§4) 2. Preparing Compound Concentration Gradient: Compounds were tested at a concentration of 300 nM, diluted to 100-fold final concentration in 100% DMSO solution in 96-well plates, and compounds were diluted 3 times with Precision, 10 concentrations. Each concentration of the compound was then further diluted to a 5-fold final concentration of the intermediate dilution solution using 1* Kinase buffer.
(§5) 3.5 μL of each of the prepared intermediate dilution compounds was separately added to the compound wells of the 384-well plate, and each concentration was tested for duplicate wells; 5 μL of 5% DMSO was added to the negative control wells and the positive control wells, respectively.
(§6) 4. 2.5-fold final concentration of the kinase solution was prepared using 1*Kinase buffer.
(§7) 5. Add 10 μL of 2.5-fold final concentration of kinase solution to the compound well and positive control well; add 10 μL of 1*Kinase buffer to the negative control well.
(§8) 6. Centrifuge at 1000 rpm for 30 seconds, shake the reaction plate and incubate for 10 minutes at room temperature.
(§9) 7. A mixed solution of 2.5 times the final concentration of ATP and Kinase substrate (5-FAM-EEPLYWSFPAKKK-CONH2) was prepared using 1*Kinase buffer.
(§10) 8. 10 μL of a 2.5-fold final concentration of a mixed solution of ATP and a substrate was added to initiate the reaction.
(§11) 9. Centrifuge the 384-well plate at 1000 rpm for 30 seconds, mix by shaking, and incubate at room temperature for the corresponding time.
(§12) 10. Add 30 μL of the stop solution to stop the kinase reaction, centrifuge at 1000 rpm for 30 seconds, and mix by shaking.
(§13) 11. Read the conversion rate with Caliper EZ Reader.
(§14) Convert conversion values to inhibition values:
(§15) Percent inhibition 32 (max-conversion)/(max-min)*100.
(§16) “max” stands for the mean value of the positive control well ratio; “min” stands for the mean value of the negative control well.
(§17) Fit the data in log(inhibitor) vs. response Variable slope of GraphPad Prism 5 to obtain IC50 values.
(§18) Equation used is: Y=Bottom+(Top-Bottom)/(1+(IC50/X)^HillSlope)

[2] = target: EGFR Del19/T790M/C797S (Homo sapiens, UniProt P00533, T790M/C797S, form not given); assay: Kinase assay (mobility shift), EGFR Del19/T790M/C797S; format: biochemical
EGFR Del19/T790M/C797S, sequence (P00533 with tags, fused parts or gaps DEL746-750/T790M/C797S, form open): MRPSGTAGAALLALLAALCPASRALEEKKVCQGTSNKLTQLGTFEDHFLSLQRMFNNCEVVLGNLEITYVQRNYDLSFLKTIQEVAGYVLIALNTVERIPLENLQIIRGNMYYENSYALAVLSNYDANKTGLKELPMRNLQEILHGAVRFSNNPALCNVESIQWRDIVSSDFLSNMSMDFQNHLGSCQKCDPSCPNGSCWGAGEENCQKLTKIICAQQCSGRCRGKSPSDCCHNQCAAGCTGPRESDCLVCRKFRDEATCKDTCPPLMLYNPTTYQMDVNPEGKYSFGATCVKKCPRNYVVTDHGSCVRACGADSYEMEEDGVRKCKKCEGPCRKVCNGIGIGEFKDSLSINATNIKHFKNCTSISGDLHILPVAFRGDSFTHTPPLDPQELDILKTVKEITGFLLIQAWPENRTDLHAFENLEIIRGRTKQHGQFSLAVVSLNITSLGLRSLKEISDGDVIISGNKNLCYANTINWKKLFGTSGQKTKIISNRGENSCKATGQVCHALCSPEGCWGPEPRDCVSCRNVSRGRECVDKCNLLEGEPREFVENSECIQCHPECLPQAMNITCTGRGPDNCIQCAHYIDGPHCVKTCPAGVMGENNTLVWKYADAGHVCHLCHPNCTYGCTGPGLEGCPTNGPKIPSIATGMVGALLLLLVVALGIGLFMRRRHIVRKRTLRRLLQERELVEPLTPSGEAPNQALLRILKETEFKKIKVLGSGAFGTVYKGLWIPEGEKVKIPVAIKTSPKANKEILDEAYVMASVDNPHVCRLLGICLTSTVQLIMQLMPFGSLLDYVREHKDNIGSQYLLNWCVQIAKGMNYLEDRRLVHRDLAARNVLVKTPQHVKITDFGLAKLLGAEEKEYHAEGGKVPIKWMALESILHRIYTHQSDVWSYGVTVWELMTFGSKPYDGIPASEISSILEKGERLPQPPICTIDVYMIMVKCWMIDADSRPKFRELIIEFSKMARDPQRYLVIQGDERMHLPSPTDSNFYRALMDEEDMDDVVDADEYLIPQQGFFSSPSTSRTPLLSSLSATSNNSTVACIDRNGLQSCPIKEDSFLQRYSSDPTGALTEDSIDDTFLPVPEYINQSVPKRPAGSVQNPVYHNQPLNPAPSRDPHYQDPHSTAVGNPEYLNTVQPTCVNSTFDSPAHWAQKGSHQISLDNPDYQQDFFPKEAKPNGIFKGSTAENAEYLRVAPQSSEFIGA
Protocol: as §1, §2, §3, §4, §5, §6, §7, §8, §9, §10, §11, §12, §13, §14, §15, §16, §17, §18

[3] = target: Ba/F3-Del19/T790M/C797S (Homo sapiens, UniProt P00533, T790M/C797S, cells depend on it, form not given); assay: Ba/F3-Del19/T790M/C797S cells proliferation assay (CellTiter Glo); format: cell-based; conditions: cell proliferation, 72 h, read-out: Ba/F3-Del19/T790M/C797S IC50
Ba/F3-Del19/T790M/C797S, sequence (P00533 with tags, fused parts or gaps DEL746-750/T790M/C797S, form open): as above
Protocol: (§19) a) The medium was preheated in a 37°0 C. water bath in advance.
(§20) b) Remove the cryogenic vials from the liquid nitrogen tank, quickly put it into a 37° C. water bath, and completely melt it in 1 min.
(§21) c) Transfer the cell suspension to a 15 mL centrifuge tube containing 8 mL medium, centrifuge 1000 rpm, 5 min.
(§22) d) Discard the supernatant, resuspend the cells in 1 mL medium, and transfer to a 75 cm^2 flask containing 15 mL medium, culture the cells in an incubator at 37° C., 5% CO2.
(§23) a) The medium was preheated in a 37° C. water bath in advance.
(§24) b) Collect cell to a 15 mL centrifuged tube, centrifuge at 1000 rpm for 5 min. Discard the supernatant, count, and make the cell density at 1×10^4 cells/mL, then place it in a 37° C., 5% CO2 incubator.
(§25) a) The test compound (20 mM stock solution) was diluted to 200uM with 100% DMSO as starting concentration then 3-fold serial diluted with “9+0” concentrations. in a 96-well dilution plate (Cat # P-05525, Labcyte);
(§26) b) The above compound solution was diluted 1:20 times with culture medium to prepare a 10 fold working solution;
(§27) a) Take cells in log phase growth, centrifuge at 1000 rpm for 5 min, then resuspend the cells with culture medium, then count cells;
(§28) b) Cells were seeded to 96-well cell culture plate with density at 2000 cells/well;
(§29) a) Compounds prepared at step 2 were added to cell plate with 15 μL per well, the final concentrations were 1000,333, 111.1, 37,12.3, 4.1, 1.4, 0.5, 0.2 and 0 nM, and the final concentration of DMSO was 0.5%. The blank control well was a culture medium (0.5% DMSO);
(§30) b) The cells were incubated for an additional 72 h in the incubator.
(§31) a) Remove the 96-well cell culture plate and add 50 μl of CTG reagent (CellTiter Glo kit, promega, Cat # G7573).
(§32) b) Plate was shaked for 2 min and then let it cool for 10 min at room temperature.
(§33) c) The Luminescence signal value was read using a PerkinElmer reader. Experimental data analysis
(§34) Data were analyzed using GraphPad Prism 6.0 software to obtain a fitted curve of compound activity.
(§35) Fit the Compound IC50 from non-linear regression equation:
(§36) Y=Bottom+(Top-Bottom)/(1+10((LogIC50-X)×Hill Slope));
(§37) X: The log of the concentration of the compound; Y: Luminescence value.
(§38) The cells proliferation assay results are expressed with IC50, shown as Table 2.

[4] = target: Ba/F3-L858R/T790M/C797S (Homo sapiens, UniProt P00533, T790M/C797S/L858R, cells depend on it); assay: Ba/F3-L858R/T790M/C797S cells proliferation assay (CellTiter Glo); format: cell-based; conditions: cell proliferation, 72 h, read-out: Ba/F3-L858R/T790M/C797S IC50
Ba/F3-L858R/T790M/C797S, sequence (P00533 whole entry T790M/C797S/L858R): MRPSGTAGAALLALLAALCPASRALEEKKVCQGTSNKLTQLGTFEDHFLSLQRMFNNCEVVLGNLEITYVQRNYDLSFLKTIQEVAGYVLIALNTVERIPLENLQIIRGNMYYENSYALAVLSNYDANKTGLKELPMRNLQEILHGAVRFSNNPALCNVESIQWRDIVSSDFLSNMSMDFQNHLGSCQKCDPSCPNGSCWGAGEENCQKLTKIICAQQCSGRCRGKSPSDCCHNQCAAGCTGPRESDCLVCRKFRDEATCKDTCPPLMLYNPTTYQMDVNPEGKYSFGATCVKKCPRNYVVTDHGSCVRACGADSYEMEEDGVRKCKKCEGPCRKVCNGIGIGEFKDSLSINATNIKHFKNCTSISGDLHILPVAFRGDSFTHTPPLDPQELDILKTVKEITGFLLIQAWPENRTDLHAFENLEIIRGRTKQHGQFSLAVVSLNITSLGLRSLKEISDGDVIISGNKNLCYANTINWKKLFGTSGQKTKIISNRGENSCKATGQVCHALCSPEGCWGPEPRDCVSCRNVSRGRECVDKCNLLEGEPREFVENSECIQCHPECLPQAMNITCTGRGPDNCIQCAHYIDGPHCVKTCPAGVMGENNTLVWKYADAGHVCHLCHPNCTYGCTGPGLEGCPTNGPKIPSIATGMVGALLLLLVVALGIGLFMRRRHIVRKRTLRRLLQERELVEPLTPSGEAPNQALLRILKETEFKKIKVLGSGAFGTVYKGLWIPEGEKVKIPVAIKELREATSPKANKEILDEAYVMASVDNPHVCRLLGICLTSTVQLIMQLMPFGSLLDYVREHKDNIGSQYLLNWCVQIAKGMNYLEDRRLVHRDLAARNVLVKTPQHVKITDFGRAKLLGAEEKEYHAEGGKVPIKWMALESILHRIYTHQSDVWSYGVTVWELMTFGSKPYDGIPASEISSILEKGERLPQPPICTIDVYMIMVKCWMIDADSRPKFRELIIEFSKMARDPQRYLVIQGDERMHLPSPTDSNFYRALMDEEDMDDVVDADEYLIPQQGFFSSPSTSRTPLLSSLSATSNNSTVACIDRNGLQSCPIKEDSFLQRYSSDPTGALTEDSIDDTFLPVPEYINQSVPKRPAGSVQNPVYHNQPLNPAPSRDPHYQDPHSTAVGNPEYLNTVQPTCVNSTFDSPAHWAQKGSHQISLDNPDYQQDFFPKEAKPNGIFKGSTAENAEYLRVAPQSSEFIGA
Protocol: as §19, §20, §21, §22, §23, §24, §25, §26, §27, §28, §29, §30, §31, §32, §33, §34, §35, §36, §37, §38

[5] = tested on: A431 (WT); assay: A431 cells proliferation assay (CellTiter Glo); format: cell-based; conditions: Homo sapiens, A-431; cell proliferation, 72 h
Protocol: Test 4 A431 Cells Proliferation Assay
DMEM and 10% FBS and 1% PS.
as §23, §20, §21, §22, §24
a) The test compound (20 mM stock solution) was diluted to 2 mM with 100% DMSO as starting concentration then 3-fold serial diluted with “9+0” concentrations. in a 96-well dilution plate (Cat # P-05525, Labcyte);
b) The above compound solution was diluted 1:40 times with culture medium to prepare a 5 fold working solution;
as §27
b) Cells were seeded to 96-well cell culture plate with density at 5000 cells/well;
a) Compounds prepared at step 2 were added to cell plate with 40 μL per well, the final concentrations were 10000, 3333,1111.1, 370.4, 123.5, 41.2, 13.7, 4.6, 1.5 and 0 nM, and the final concentration of DMSO was 0.5%. The blank control well was a culture medium (0.5% DMSO);
as §30
a) Remove the 96-well cell culture plate and add 60 μl of CTG reagent (CellTiter Glo kit, promega, Cat # G7573).
as §32
c) The Luminescence signal value was read using a PerkinElmer reader.
Experimental Data Analysis
as §34, §35
Y=Bottom+(Top-Bottom)/(1+10((LogIC50-X)×HillSlope));
as §37
The cells proliferation assay results are expressed with IC50, shown as Table 3.

[6] = Pharmacokinetic assay, oral administration; format: in vivo; conditions: rat, male SD rats, p.o. 5 mg/kg, plasma, formulation differs per row
Protocol: Test 5 Pharmacokinetic Assay
Male SD rats, oral administration (intragastric administration), 3 in each group. Animals administered by gavage were fasted overnight before the experiment, and the fasting time was from at least 12 hours before administration to 4 hours after administration. The blood was collected using the orbital vein. Time of blood collection by oral administration: 15 min, 30 min, 1 h, 2 h, 4 h, 7 h, 24 h. The blood collection volume was 300 uL, and after anticoagulation with 2.0% EDTA, the blood was centrifuged at 4000 rpm for 5 min, and the blood plasma was taken for about 100 uL, and placed in −20° C. for examination. The plasma sample was analyzed using liquid chromatography tandem mass spectrometry (LC-MS/MS). Plasma concentration-time data for individual animals were analyzed using WinNonlin (V4.1, Pharsight) software with a non-compartmental model and the pharmacokinetic parameters of the test compounds were calculated.

[7] = target: EGFR WT (Homo sapiens, UniProt P00533); assay: Kinase assay (mobility shift), EGFR wildtype; format: biochemical; conditions: top concentration 300 nM
Protocol: as §1, §2, §3, §4, §5, §6, §7, §8, §9, §10, §11, §12, §13, §14, §15, §16, §17, §18

EGFR L858R/T790M/C797S, sequence (P00533 25-1210 T790M/C797S/L858R): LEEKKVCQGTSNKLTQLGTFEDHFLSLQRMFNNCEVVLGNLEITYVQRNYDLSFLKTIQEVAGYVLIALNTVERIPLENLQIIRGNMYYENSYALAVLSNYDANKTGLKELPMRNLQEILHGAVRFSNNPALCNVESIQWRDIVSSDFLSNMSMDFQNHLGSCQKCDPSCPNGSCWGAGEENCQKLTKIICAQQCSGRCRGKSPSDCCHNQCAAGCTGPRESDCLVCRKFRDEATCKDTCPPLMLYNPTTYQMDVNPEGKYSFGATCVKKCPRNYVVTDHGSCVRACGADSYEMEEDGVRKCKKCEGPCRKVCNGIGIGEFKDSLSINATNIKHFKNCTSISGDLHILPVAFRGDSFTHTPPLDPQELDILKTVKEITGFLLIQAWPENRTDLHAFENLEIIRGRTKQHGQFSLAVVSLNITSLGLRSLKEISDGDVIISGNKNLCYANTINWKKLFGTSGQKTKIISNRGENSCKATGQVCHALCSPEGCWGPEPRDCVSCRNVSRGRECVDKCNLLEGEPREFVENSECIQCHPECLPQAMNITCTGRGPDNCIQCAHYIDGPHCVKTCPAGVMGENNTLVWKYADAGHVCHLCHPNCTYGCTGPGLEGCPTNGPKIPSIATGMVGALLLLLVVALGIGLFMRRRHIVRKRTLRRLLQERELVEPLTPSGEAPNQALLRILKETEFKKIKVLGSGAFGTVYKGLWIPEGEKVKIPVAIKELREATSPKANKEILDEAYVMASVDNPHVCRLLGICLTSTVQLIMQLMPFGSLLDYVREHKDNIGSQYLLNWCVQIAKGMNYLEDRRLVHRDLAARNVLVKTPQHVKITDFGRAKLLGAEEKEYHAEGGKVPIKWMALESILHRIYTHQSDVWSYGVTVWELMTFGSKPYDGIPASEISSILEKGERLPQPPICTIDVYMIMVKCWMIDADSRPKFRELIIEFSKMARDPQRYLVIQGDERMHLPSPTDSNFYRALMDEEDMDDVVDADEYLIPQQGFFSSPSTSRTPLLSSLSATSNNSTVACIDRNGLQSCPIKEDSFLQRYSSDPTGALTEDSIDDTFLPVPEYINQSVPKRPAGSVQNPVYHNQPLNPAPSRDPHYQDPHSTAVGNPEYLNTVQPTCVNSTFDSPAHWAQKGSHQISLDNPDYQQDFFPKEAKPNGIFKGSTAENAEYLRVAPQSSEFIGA

Row | IC50 [1] | IC50 [2] | GI50 ([3]; class symbols) | GI50 ([4]; class symbols) | IC50 [5] | GI50 ([3]; numeric values) | GI50 ([4]; numeric values) | IC50 [7] | Compound | AUC(0-t) [6] | Cmax [6] | Tmax [6] | half-life [6]
1 |  | 0.001 µM |  | 0.01 to 0.05 µM | 0.121 µM | 0.0244 µM |  |  | CP(C)(=O)c1ccccc1Nc1nc(Nc2ccc(N3CC4(CCC(NCCO)CC4)C3)c(Cl)c2)ncc1Cl [Example 12, (2-((5-chloro-2-((3-chloro-4-(7-((2-hydroxyethyl)amino)-2-azaspiro[3.5]nonan-2-yl)phenyl)amino)pyrimidin-4-yl)amino)phenyl)dimethylphosphine oxide] |  |  |  | 
2 | 0.0013 µM | 0.0006 µM | ≤ 0.01 µM | ≤ 0.01 µM | 0.0416 µM |  |  |  | CN(C)C1CCC2(CC1)CN(c1ccc(Nc3ncc(Cl)c(Nc4ccccc4P(C)(C)=O)n3)cc1)C2 [Example 13, (2-((5-chloro-2-((4-(7-(dimethylamino)-2-azaspiro[3.5]nonan-2-yl)phenyl)amino)pyrimidin-4-yl)amino)phenyl)dimethylphosphine oxide] |  |  |  | 
3 |  | 0.0007 µM | ≤ 0.01 µM | ≤ 0.01 µM | 0.035 µM |  |  |  | CN(C)C1CC2(CCN(c3ccc(Nc4ncc(Cl)c(Nc5ccccc5P(C)(C)=O)n4)cc3)CC2)C1 [Example 17, (2-((5-chloro-2-((4-(2-(dimethylamino)-7-azaspiro[3.5]nonan-7-yl)phenyl)amino)pyrimidin-4-yl)amino)phenyl)dimethylphosphine oxide] |  |  |  | 
4 | 0.0045 µM |  | 0.01 to 0.05 µM | 0.01 to 0.05 µM | 0.349 µM |  |  | > 0.3 µM | CN(C)C1CC2(CCN(c3ccc(Nc4ncc(Cl)c(Nc5ccccc5P(C)(C)=O)n4)cc3C(F)(F)F)CC2)C1 [Example 19, (2-((5-chloro-2-((4-(2-(dimethylamino)-7-azaspiro[3.5]nonan-7-yl)-3-(trifluoromethyl)phenyl)amino)pyrimidin-4-yl)amino)phenyl)dimethylphosphine oxide] |  |  |  | 
5 | 0.0009 µM |  | > 0.05 µM | > 0.05 µM | 0.367 µM |  |  | 0.02 µM | Cc1cc(Nc2nc(Nc3ccccc3P(C)(C)=O)c3nc[nH]c3n2)ccc1N1CCC2(CC1)CC(N)C2 [Example 21, (2-((2-((4-(2-amino-7-azaspiro[3.5]nonan-7-yl)-3-methylphenyl)amino)-9H-purin-6-yl)amino)phenyl)dimethylphosphine oxide] |  |  |  | 
6 | 0.0016 µM |  |  |  | 0.0955 µM | 0.0169 µM | 0.0329 µM | 0.035 µM | CP(C)(=O)c1ccccc1Nc1nc(Nc2ccc(N3CCC4(CC3)CC(N)C4)c(F)c2)ncc1Cl [Example 29, (2-((2-((4-(2-amino-7-azaspiro[3.5]nonan-7-yl)-3-fluorophenyl)amino)-5-chloropyrimidin-4-yl)amino)phenyl)dimethylphosphine oxide] |  |  |  | 
7 |  | 0.0004 µM |  |  | 0.047 µM | 0.0097 µM | 0.0117 µM |  | CP(C)(=O)c1ccccc1Nc1nc(Nc2ccc(N3CCC4(CC3)CC(N3CCCC3)C4)c(Cl)c2)ncc1Cl [Example 33, (2-((5-chloro-2-((3-chloro-4-(2-(pyrrolidin-1-yl)-7-azaspiro[3.5]nonan-7-yl)phenyl)amino)pyrimidin-4-yl)amino)phenyl)dimethylphosphine oxide] |  |  |  | 
8 |  | 0.00053 µM |  |  | 0.053 µM | 0.0147 µM | 0.0217 µM |  | CN(C)[C@@H]1CCN(C2CC3(CCN(c4ccc(Nc5ncc(Cl)c(Nc6ccccc6P(C)(C)=O)n5)cc4Cl)CC3)C2)C1 [Example 34, (R)-(2-((5-chloro-2-((3-chloro-4-(2-(3-(dimethylamino)pyrrolidin-1-yl)-7-azaspiro[3.5]nonan-7-yl)phenyl)amino)pyrimidin-4-yl)amino)phenyl)dimethylphosphine oxide] |  |  |  | 

Row | Compound | IC50 [1] | IC50 [2] | GI50 ([3]; class symbols) | GI50 ([4]; class symbols) | IC50 [5] | GI50 ([3]; numeric values) | GI50 ([4]; numeric values) | IC50 [7] | AUC(0-t) [6] | Cmax [6] | Tmax [6] | half-life [6]
9 | CN(C)C1CC2(CCN(c3ccc(Nc4ncc(Cl)c(Nc5ccccc5P(C)(C)=O)n4)cc3Cl)CC2)C1 [Example 6, (2-((5-chloro-2-((3-chloro-4-(2-(dimethylamino)-7-azaspiro[3.5]nonan-7-yl)phenyl)amino)pyrimidin-4-yl)amino)phenyl)dimethylphosphine oxide] | 0.0013 µM | 0.00037 µM | 0.01 to 0.05 µM | 0.01 to 0.05 µM | 0.0447 µM |  |  |  | 8810 ng·h/mL | 741 ng/mL | 4 h | 3 h
10 | CP(C)(=O)c1ccccc1Nc1nc(Nc2ccc(N3CCC4(CC3)CC(N)C4)c(Cl)c2)ncc1Cl [Example 8, (2-((2-((4-(2-amino-7-azaspiro[3.5]nonan-7-yl)-3-chlorophenyl)amino)-5-chloropyrimidin-4-yl)amino)phenyl)dimethylphosphine oxide] | 0.0016 µM | 0.00058 µM |  |  | 0.0575 µM | 0.0215 µM | 0.0173 µM |  | 2820 ng·h/mL | 388 ng/mL | 2.08 h | 3.17 h
